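In this assay, cells in 96-well plates receive the compound at five concentrations for 48 hours. Endpoints are linearly interpolated between the surrounding concentrations. GI50 marks 50% less growth.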 The source made the active and inactive calls. Rule as the data show it: active = GI50 up to about 1.1 µM and inactive = higher.
Columns and labels:
Test in all cases: NCI-60 cell line screen, 48 h
LXFL 529 = system: LXFL 529
LOX IMVI = system: LOX IMVI
OVCAR-5 = system: OVCAR-5
SK-OV-3 = system: SK-OV-3
Malme-3M = system: Malme-3M
SF-295 = system: SF-295
UACC-257 = system: UACC-257
OVCAR-8 = system: OVCAR-8
SR = system: SR
M19-MEL = system: M19-MEL
KM12 = system: KM12
EKVX = system: EKVX
SNB-75 = system: SNB-75
DMS-273 = system: DMS-273
NCI-H522 = system: NCI-H522
NCI-H460 = system: NCI-H460
HCC 2998 = system: HCC 2998
MOLT-4 = system: MOLT-4
SK-MEL-28 = system: SK-MEL-28
OVCAR-4 = system: OVCAR-4
SNB-19 = system: SNB-19
RPMI-8226 = system: RPMI-8226
M14 = system: M14
HCT-15 = system: HCT-15
IGROV-1 = system: IGROV-1
CAKI-1 = system: CAKI-1
SN12C = system: SN12C
SK-MEL-5 = system: SK-MEL-5
ACHN = system: ACHN
UO-31 = system: UO-31
HCT-116 = system: HCT-116
A549 = system: A549
SW-620 = system: SW-620
OVCAR-3 = system: OVCAR-3
KM-20L2 = system: KM-20L2
XF498 = system: XF498
U-251 = system: U-251
HOP-62 = system: HOP-62
RXF 393 = system: RXF 393
SF-539 = system: SF-539
SK-MEL-2 = system: SK-MEL-2
K562 = system: K562
786-0 = system: 786-0
HT-29 = system: HT-29
DLD-1 = system: DLD-1
NCI-H226 = system: NCI-H226
UACC-62 = system: UACC-62
SF-268 = system: SF-268
A498 = system: A498
NCI-H23 = system: NCI-H23
CCRF-CEM = system: CCRF-CEM
HL-60 = system: HL-60
SNB-78 = system: SNB-78
TK-10 = system: TK-10
HOP-92 = system: HOP-92
DMS-114 = system: DMS-114
COLO 205 = system: COLO 205
HOP-18 = system: HOP-18

With `CC1=C(c2ccccc2)C(c2ccccc2)=C(c2ccccc2)C2(c3ccccc3)C(=O)C(C)CN12` (configuration not stated) the GI50 (LXFL 529) was 43.8 µM (inactive), the GI50 (LOX IMVI) was 58.7 µM (inactive) and the GI50 (OVCAR-5) was 49.9 µM (inactive). For the same molecule, the GI50 (SK-OV-3) was > 100 µM (inactive), the GI50 (Malme-3M) was > 100 µM (inactive) and the GI50 (SF-295) was 13.3 µM (inactive). For the same molecule, the GI50 (UACC-257) was 30.5 µM (inactive), the GI50 (OVCAR-8) was 17.9 µM (inactive) and the GI50 (SR) was 26.4 µM (inactive). The GI50 (M19-MEL) was 58.5 µM (inactive), the GI50 (KM12) was 43.1 µM (inactive) and the GI50 (EKVX) was 41.4 µM (inactive). The GI50 (SNB-75) was 19.4 µM (inactive), the GI50 (DMS-273) was 46.1 µM (inactive) and the GI50 (NCI-H522) was 15.7 µM (inactive). The GI50 (NCI-H460) was 32.7 µM (inactive), the GI50 (HCC 2998) was > 100 µM (inactive) and the GI50 (MOLT-4) was 16.6 µM (inactive). For the same molecule, the GI50 (SK-MEL-28) was > 100 µM (inactive), the GI50 (OVCAR-4) was 20.8 µM (inactive) and the GI50 (SNB-19) was 26.5 µM (inactive). The GI50 (RPMI-8226) was 29.2 µM (inactive), the GI50 (M14) was 51.6 µM (inactive) and the GI50 (HCT-15) was 61.2 µM. The GI50 (IGROV-1) was 99.5 µM (inactive), the GI50 (CAKI-1) was 57.3 µM (inactive) and the GI50 (SN12C) was 41.7 µM (inactive). For the same molecule, the GI50 (SK-MEL-5) was 59 µM (inactive), the GI50 (ACHN) was 41.4 µM (inactive) and the GI50 (UO-31) was > 100 µM (inactive). The GI50 (HCT-116) was 45.3 µM (inactive), the GI50 (A549) was 57.1 µM (inactive) and the GI50 (SW-620) was 79.1 µM (inactive). For the same molecule, the GI50 (OVCAR-3) was 34.7 µM (inactive), the GI50 (KM-20L2) was 45.5 µM (inactive) and the GI50 (XF498) was 16.9 µM (inactive). For the same molecule, the GI50 (U-251) was 30.3 µM (inactive), the GI50 (HOP-62) was > 100 µM (inactive) and the GI50 (RXF 393) was 26.1 µM (inactive). For the same molecule, the GI50 (SF-539) was 31.5 µM (inactive), the GI50 (SK-MEL-2) was 95.7 µM (inactive) and the GI50 (K562) was > 10 µM (inactive). The GI50 (786-0) was 30.6 µM (inactive), the GI50 (HT-29) was 42.3 µM (inactive) and the GI50 (DLD-1) was 61.8 µM (inactive). The GI50 (NCI-H226) was 21 µM (inactive), the GI50 (UACC-62) was 10.3 µM (inactive) and the GI50 (SF-268) was > 100 µM (inactive). The GI50 (A498) was > 100 µM (inactive).
With `O=Cc1c(O)ccc2ccc(O)c(-c3c(O)ccc4ccc(O)cc34)c12` the GI50 (LXFL 529) was 75.3 µM (inactive), the GI50 (LOX IMVI) was > 100 µM (inactive) and the GI50 (OVCAR-5) was > 100 µM (inactive). The GI50 (NCI-H23) was > 100 µM (inactive), the GI50 (SK-OV-3) was > 100 µM (inactive) and the GI50 (Malme-3M) was 37.5 µM (inactive). The GI50 (SF-295) was 53.1 µM (inactive), the GI50 (UACC-257) was > 100 µM (inactive) and the GI50 (CCRF-CEM) was 99.3 µM (inactive). The GI50 (OVCAR-8) was > 100 µM (inactive), the GI50 (SR) was 67.9 µM (inactive) and the GI50 (HL-60) was > 100 µM (inactive). The GI50 (M19-MEL) was > 100 µM (inactive), the GI50 (KM12) was 98.4 µM (inactive) and the GI50 (SNB-75) was 88.7 µM (inactive). The GI50 (DMS-273) was > 100 µM (inactive), the GI50 (NCI-H522) was 80.9 µM (inactive) and the GI50 (NCI-H460) was > 100 µM (inactive). The GI50 (SNB-78) was > 100 µM (inactive), the GI50 (MOLT-4) was > 100 µM (inactive) and the GI50 (SK-MEL-28) was > 100 µM (inactive). For the same molecule, the GI50 (TK-10) was > 100 µM (inactive), the GI50 (OVCAR-4) was > 100 µM (inactive) and the GI50 (RPMI-8226) was > 100 µM (inactive). The GI50 (HOP-92) was 66.7 µM (inactive), the GI50 (M14) was > 100 µM (inactive) and the GI50 (HCT-15) was greater than 100 µM. The GI50 (IGROV-1) was > 100 µM (inactive), the GI50 (CAKI-1) was > 100 µM (inactive) and the GI50 (SN12C) was > 100 µM (inactive). The GI50 (SK-MEL-5) was > 100 µM (inactive), the GI50 (ACHN) was > 100 µM (inactive) and the GI50 (UO-31) was > 100 µM (inactive). For the same molecule, the GI50 (HCT-116) was > 100 µM (inactive), the GI50 (DMS-114) was 96.2 µM (inactive) and the GI50 (A549) was > 100 µM (inactive). For the same molecule, the GI50 (SW-620) was > 100 µM (inactive), the GI50 (OVCAR-3) was 48.2 µM (inactive) and the GI50 (KM-20L2) was > 100 µM (inactive). For the same molecule, the GI50 (U-251) was > 100 µM (inactive), the GI50 (HOP-62) was > 100 µM (inactive) and the GI50 (COLO 205) was > 100 µM (inactive). The GI50 (RXF 393) was 44.4 µM (inactive), the GI50 (SF-539) was 52.7 µM (inactive) and the GI50 (SK-MEL-2) was 31.8 µM (inactive). For the same molecule, the GI50 (K562) was > 100 µM (inactive), the GI50 (786-0) was > 100 µM (inactive) and the GI50 (HOP-18) was 49.5 µM (inactive). For the same molecule, the GI50 (HT-29) was > 100 µM (inactive), the GI50 (DLD-1) was > 100 µM (inactive) and the GI50 (NCI-H226) was 28.6 µM (inactive). For the same molecule, the GI50 (UACC-62) was 77.8 µM (inactive), the GI50 (SF-268) was > 100 µM (inactive) and the GI50 (A498) was 43.2 µM (inactive).
With `CC(/C=C/c1ncccc1OCCCCCC(=O)O)=N\NC1=NCCN1` the GI50 (LXFL 529) was > 100 µM (inactive), the GI50 (LOX IMVI) was > 100 µM (inactive) and the GI50 (OVCAR-5) was > 100 µM (inactive). The GI50 (SK-OV-3) was > 100 µM (inactive), the GI50 (Malme-3M) was > 100 µM (inactive) and the GI50 (SF-295) was > 100 µM (inactive). The GI50 (CCRF-CEM) was > 100 µM (inactive), the GI50 (OVCAR-8) was > 100 µM (inactive) and the GI50 (SR) was > 100 µM (inactive). For the same molecule, the GI50 (HL-60) was > 100 µM (inactive), the GI50 (M19-MEL) was > 100 µM (inactive) and the GI50 (KM12) was > 100 µM (inactive). For the same molecule, the GI50 (EKVX) was > 100 µM (inactive), the GI50 (DMS-273) was > 100 µM (inactive) and the GI50 (NCI-H522) was > 100 µM (inactive). For the same molecule, the GI50 (NCI-H460) was > 100 µM (inactive), the GI50 (HCC 2998) was > 100 µM (inactive) and the GI50 (MOLT-4) was > 100 µM (inactive). For the same molecule, the GI50 (SK-MEL-28) was > 100 µM (inactive), the GI50 (TK-10) was 65.3 µM (inactive) and the GI50 (OVCAR-4) was > 100 µM (inactive). For the same molecule, the GI50 (SNB-19) was > 100 µM (inactive), the GI50 (RPMI-8226) was > 100 µM (inactive) and the GI50 (HOP-92) was > 100 µM (inactive). The GI50 (M14) was > 100 µM (inactive), the GI50 (HCT-15) was greater than 100 µM and the GI50 (IGROV-1) was > 100 µM (inactive). For the same molecule, the GI50 (CAKI-1) was > 100 µM (inactive), the GI50 (SN12C) was > 100 µM (inactive) and the GI50 (ACHN) was > 100 µM (inactive). For the same molecule, the GI50 (UO-31) was > 100 µM (inactive), the GI50 (HCT-116) was > 100 µM (inactive) and the GI50 (DMS-114) was > 100 µM (inactive). The GI50 (A549) was > 100 µM (inactive), the GI50 (SW-620) was > 100 µM (inactive) and the GI50 (OVCAR-3) was > 100 µM (inactive). The GI50 (KM-20L2) was > 100 µM (inactive), the GI50 (XF498) was > 100 µM (inactive) and the GI50 (HOP-62) was > 100 µM (inactive). The GI50 (COLO 205) was > 100 µM (inactive), the GI50 (RXF 393) was 68.1 µM (inactive) and the GI50 (SF-539) was > 100 µM (inactive). For the same molecule, the GI50 (SK-MEL-2) was > 100 µM (inactive), the GI50 (K562) was > 100 µM (inactive) and the GI50 (HT-29) was > 100 µM (inactive). For the same molecule, the GI50 (DLD-1) was > 100 µM (inactive), the GI50 (NCI-H226) was > 100 µM (inactive) and the GI50 (UACC-62) was > 100 µM (inactive). The GI50 (SF-268) was > 100 µM (inactive).

From ChEMBL document CHEMBL1201862, “PubChem BioAssay data set” (2004)
